Legend:
[1] = test system: 6-Hydroxydopamine-lesioned rats; assay: 6-OHDA lesioned rat assay (potentiation of L-DOPA-induced contraversive rotation); assay type: in vivo; conditions: Table 1; po; statistically significant increase in contraversive rotations versus L-DOPA alone (L-DOPA methyl ester 10 mg/kg SC)
Excerpt: b. The 6-OHDA Lesioned Rat Assay (6-OHDA):
The 6-OHDA model is used to test compounds of the invention for anti-Parkinsonism activity.
(i) 6-OHDA lesioned rat assay protocol:
6-Hydroxydopamine-lesioned rats were used (see Ungerstedt U, Arbuthnott G W: “Quantitative recording of rotational behavior in rats after 6-hydroxy-dopamine lesions of the nigrostraiatal dopamine system”, Brain Res., 1971;24(3):485-493). Adult male Sprague-Dawley rats were anesthetized with chloral hydrate, and unilateral lesions of the nigrostriatal dopamine system were accomplished by infusion of 8 μg of 6-hydroxydopamine HBr (6-OHDA) into the right medial forebrain bundle. Rats were pretreated 30 minutes before surgery with desipramine HCl 25 mg/kg intraperitoneally (IP) to protect noradrenergic neurons, and pargyline 25 mg/kg IP to potentiate the effects of 6-OHDA. A minimum of 3 weeks after surgery, the rotational behavior induced by apomorphine HCL 50 μg/kg administered subcutaneously (SC) was assessed.
(ii) Measurement of animal behavior:
Rotational behavior was measured using an automatic rotometer system (Rotorat Rotational Activity System, MED Associates, Georgia, Vt.). Antiparkinsonian activity was assessed as the ability of the invention compounds to potentiate the contraversive rotation induced by L-DOPA methyl ester, dosed at 10 mg/kg SC, over a 6-hour period. […]

Male Wistar albino rats = assay: Formalin footpad test (FT); assay type: in vivo, rat; conditions: Table 1; PO; statistically significant decrease in late-phase pain behaviour versus vehicle
Description: a. The Formalin Footpad Test (FT):
The FT model was used to test invention compounds for pain alleviating properties. The model produces a biphasic response in a test animal that results from a change in pain intensity over time. The FT model utilizes an injection of dilute formalin into the hindpaw of a rodent, which produces high intensity acute pain behaviors which are measured for the first 10 minutes post formalin injection (early phase responding). High intensity acute pain behaviors include rapid licking or biting of the injected hindpaw. The second phase is a prolonged period of lower intensity pain behaviors (late phase responding) which are measured from 11 to 45 minutes post-formalin injection.
Male Wistar albino rats (Harlan Sprague-Dawley Labs), weighing approximately 100 g at the time of testing, were used. Animals were group-housed and acclimated to the housing facility for 1 week prior to testing. Animals were maintained on a 12-hour/12-hour light/dark cycle and fed block rodent chow. From 4 to 8 animals were randomly assigned to either a vehicle-only dose group or a vehicle-plus invention compound treatment group on the day of testing.
The testing apparatus was a 16″×8″ box divided into two 8″×8″ testing chambers. Each testing chamber comprised a floor and 3 walls made of clear plastic mirrors, and a fourth wall which was clear plastic that allowed observation of animal behavior. The top of each chamber was covered with a metal screen during testing to prevent animals from climbing out of the chamber. Two animals were tested simultaneously in the adjoining boxes, but animals were unable to observe one another.
Animals were weighed and placed into holding cages (2 animals per cage) in the testing room prior to dosing. Following approximately 30 minutes of acclimation to the testing room, each pair of animals was administered orally (PO) by gavage a mixture of invention compound plus vehicle or vehicle alone. The treated animals were then placed in individual test chambers and allowed to acclimate to the chambers for at least 20 minutes. Then 50 μL of a 2.5% solution of formalin in vehicle was injected subcutaneously (SC) in the plantar surface of the left hindpaw from 30 to 120 minutes after administration of the invention compound. A session timer was started following the formalin injection, and the amount of time the animal spent licking or biting the injected paw was clocked with a hand-held stopwatch. The cumulative time spent engaging in a pain response was manually recorded at 5-minute intervals for 45 minutes post formalin injection. Early phase responding included Minutes 0 to 10, and late phase responding included Minutes 11 to 45. At the end of the testing period, animals were sacrificed using carbon dioxide. […]

Row | Compound | 6-OHDA (mg/kg), minimum effective dose (MED) [1] | FT (mg/kg), active dose (Male Wistar albino rats) [mg/kg]
1 | O=c1[nH]c2ccc(C3=NOC(CN4CCC(Cc5ccc(F)cc5)CC4)C3)cc2o1 (single isomer, unassigned; (-)) [Example 4b, (−)-6-{5-[4-(4-Fluorobenzyl)piperidin-1-ylmethyl]4,5-dihydroisoxazol-3-yl}-3H-benzoxazol-2-one] | >30 (po) mg/kg | >30
2 | O=c1[nH]c2ccc(C3=NOC(CN4CCC(Cc5ccccc5)CC4)C3)cc2o1 (racemic) [Example 1, 6-[5-(4-Benzylpiperidin-1-ylmethyl)-4,5-dihydroisoxazol-3-yl]-3H-benzoxazol-2-one] | >10 (po) mg/kg | >10
